From BindingDB's records for doi:10.1016/0960-894X(96)00297-1 (1996) come the findings set out here.

A value given as a limit tells only on which side of the number the result lay.

A word on the IC50: it is the concentration at which inhibition is half-maximal. A lower IC50 goes with inhibition by little substance.

For the assay, the target named is Endothelin-converting enzyme 1 (Cavia porcellus). Description: In vitro inhibition of phosphoramidon-sensitive membrane bound zinc metalloprotease Endothelin-converting enzyme from partially purified guinea pig lungs.

Molecule `CC(=O)N[C@@H](Cc1ccccc1)P(=O)(O)CC1(C(=O)N[C@@H](Cc2c[nH]c3ccccc23)C(=O)O)CCCC1` [(S)-2-({1-[((R)-1-Acetylamino-2-phenyl-ethyl)-hydroxy-phosphinoylmethyl]-cyclopentanecarbonyl}-amino)-3-(1H-indol-3-yl)-propionic acid] returned an IC50 of 600 nM.
Under `O=C(N[C@@H](Cc1ccccc1)P(=O)(O)CC1(C(=O)N[C@@H](Cc2c[nH]c3ccccc23)C(=O)O)CCCC1)c1ccccc1` [(S)-2-({1-[((R)-1-Benzoylamino-2-phenyl-ethyl)-hydroxy-phosphinoylmethyl]-cyclopentanecarbonyl}-amino)-3-(1H-indol-3-yl)-propionic acid] stands 250 nM; under `O=C(N[C@@H](Cc1ccccc1)P(=O)(O)CC1(C(=O)N[C@@H](Cc2c[nH]c3ccccc23)C(=O)O)CCCC1)OCc1ccccc1` [(S)-2-({1-[((R)-1-Benzyloxycarbonylamino-2-phenyl-ethyl)-hydroxy-phosphinoylmethyl]-cyclopentanecarbonyl}-amino)-3-(1H-indol-3-yl)-propionic acid], 190 nM.
Under `O=C(N[C@@H](Cc1ccccc1)P(=O)(O)CC1(C(=O)N[C@@H](Cc2ccc(O)cc2)C(=O)O)CCCC1)OCc1ccccc1` [(S)-2-({1-[((R)-1-Benzyloxycarbonylamino-2-phenyl-ethyl)-hydroxy-phosphinoylmethyl]-cyclopentanecarbonyl}-amino)-3-(4-hydroxy-phenyl)-propionic acid] stands 120 nM; under `NC(=O)C[C@H](NC(=O)C1(CP(=O)(O)[C@H](Cc2ccccc2)NC(=O)OCc2ccccc2)CCCC1)C(=O)O` [(S)-2-({1-[((R)-1-Benzyloxycarbonylamino-2-phenyl-ethyl)-hydroxy-phosphinoylmethyl]-cyclopentanecarbonyl}-amino)-succinamic acid], > 1000 nM.
To `O=C(N[C@H](Cc1ccccc1)P(=O)(O)CC1(C(=O)N[C@@H](Cc2c[nH]c3ccccc23)C(=O)O)CCCC1)OCc1ccccc1` [(S)-2-({1-[((S)-1-Benzyloxycarbonylamino-2-phenyl-ethyl)-hydroxy-phosphinoylmethyl]-cyclopentanecarbonyl}-amino)-3-(1H-indol-3-yl)-propionic acid] belongs > 10000 nM; to `COc1ccc(C(=O)N[C@@H](Cc2ccccc2)P(=O)(O)CC2(C(=O)N[C@@H](Cc3c[nH]c4ccccc34)C(=O)O)CCCC2)cc1` [(S)-2-[(1-{Hydroxy-[(R)-1-(4-methoxy-benzoylamino)-2-phenyl-ethyl]-phosphinoylmethyl}-cyclopentanecarbonyl)-amino]-3-(1H-indol-3-yl)-propionic acid], 160 nM.
On to `CC(C)(C)C(=O)N[C@@H](Cc1ccccc1)P(=O)(O)CC1(C(=O)N[C@@H](Cc2c[nH]c3ccccc23)C(=O)O)CCCC1` [(S)-2-[(1-{[(R)-1-(2,2-Dimethyl-propionylamino)-2-phenyl-ethyl]-hydroxy-phosphinoylmethyl}-cyclopentanecarbonyl)-amino]-3-(1H-indol-3-yl)-propionic acid], for which the IC50 was found to be 550 nM.
To `NCc1ccc(C(=O)N[C@@H](Cc2ccccc2)P(=O)(O)CC2(C(=O)N[C@@H](Cc3c[nH]c4ccccc34)C(=O)O)CCCC2)cc1` [(S)-2-[(1-{[(R)-1-(4-Aminomethyl-benzoylamino)-2-phenyl-ethyl]-hydroxy-phosphinoylmethyl}-cyclopentanecarbonyl)-amino]-3-(1H-indol-3-yl)-propionic acid] belongs 90 nM; to `CC(C)C[C@H](NP(=O)(O)O)C(=O)N[C@@H](Cc1c[nH]c2ccccc12)C(=O)O` [(S)-3-(1H-Indol-3-yl)-2-((S)-4-methyl-2-phosphonoamino-pentanoylamino)-propionic acid], 1500 nM.
